Reference: patent US7419979B2, “Derivatives of 6-{4-[4-(1H-indole-2-sulphonyl)-piperazin-1-carbonyl-phenyl]}pyradizin-3-one” (AstraZeneca AB, priority 2004, dated 2008)

Target: T1, human FXa (Homo sapiens, UniProt P00742)
T1 construct: human FXa, Haematologic Technologies Inc; purchased Haematologic Technologies Inc
Assay: Measurement of Factor Xa Inhibition (chromogenic substrate method)
Format: biochemical
Details: inhibition of Factor Xa activity, screen a); chromogenic substrate S-2765, 40 min at 37° C.; specimen results
Procedure: a) Measurement of Factor Xa Inhibition
The FXa inhibitor potency was measured with a chromogenic substrate method, in a Plato 3300 robotic microplate processor (Rosys AG, CH-8634 Hombrechtikon, Switzerland), using 96-well, half-volume microtiter plates (Costar, Cambridge, Mass., USA; Cat No 3690). Stock solutions of test substance in DMSO (72 μL), 10 mmol/L, alternatively 1 mmol/L were diluted serially 1:3 (24+48 μL) with DMSO to obtain ten different concentrations, which were analyzed as samples in the assay, together with controls and blanks. As control sample melagatran was analysed. The dilutions of each test substance were analyzed consecutively, row-wise on the microtiter plate, with wash-cycles between substances to avoid cross-contamination. […] The final assay concentrations were: test substance 0.0068-133, respectively 0.00068-13.3 μmol/L, S-2765 0.40 mmol/L (KM=0.25 mmol/L) and FXa 0.1 nmol/L. The linear absorbance increase at 405 nm during 40 min incubation at 37° C. was used for calculation of percent inhibition for the test samples, as compared to references without inhibitor and/or enzyme. […]

T1 sequence (P00742 235-488 limits assumed): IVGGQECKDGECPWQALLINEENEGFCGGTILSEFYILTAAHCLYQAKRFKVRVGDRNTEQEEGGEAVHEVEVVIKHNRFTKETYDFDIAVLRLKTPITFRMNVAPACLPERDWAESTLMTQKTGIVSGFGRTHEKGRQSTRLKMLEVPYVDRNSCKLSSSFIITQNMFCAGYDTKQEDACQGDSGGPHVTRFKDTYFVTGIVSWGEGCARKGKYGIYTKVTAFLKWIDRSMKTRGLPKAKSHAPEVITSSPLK
T1 sequence (P00742 41-179 partner limits assumed): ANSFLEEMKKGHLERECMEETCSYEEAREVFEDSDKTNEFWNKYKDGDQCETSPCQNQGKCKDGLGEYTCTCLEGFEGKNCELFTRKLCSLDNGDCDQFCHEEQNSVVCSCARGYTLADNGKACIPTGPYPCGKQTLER

| SMILES | IC50 |
| --- | --- |
| CNCCn1nc(-c2ccc(C(=O)N3CCN(S(=O)(=O)c4cc5cc(Cl)ccc5[nH]4)CC3)cc2)ccc1=O [Example 3, 6-{4-[4-(5-Chloro-1H-indole-2-sulphonyl)-piperazine-1-carbonyl]-phenyl}-2-(2-methylamino-ethyl)-2H-pyridazin-3-one] | 55 nM |
| COCCOCCn1nc(-c2ccc(C(=O)N3CCN(S(=O)(=O)c4cc5cc(Cl)ccc5[nH]4)CC3)cc2)ccc1=O [Example 9, 6-{4-[4-(5-Chloro-1H-indole-2-sulphonyl)-piperazine-1-carbonyl]-phenyl}-2-[2-(2-methoxy-ethoxy)-ethyl]-2H-pyridazin-3-one] | 38 nM |
